Results: patent US20250230193A1, “CYCLIC COMPOUND HAVING SELECTIVE KRAS INHIBITORY EFFECT ON HRAS AND NRAS” (CHUGAI SEIYAKU KABUSHIKI KAISHA, priority 2022, published 2025)

Tests used:
[1] = target: GDP-bound HRAS wild-type protein (Homo sapiens, UniProt P01112); assay: Binding to HRAS by surface plasmon resonance (SPR), Single Cycle Kinetics; conditions: KD ratio, GDP-bound HRAS wild-type vs GDP-bound KRAS wild-type, SPR
[2] = target: GDP-bound NRAS wild-type protein (Homo sapiens, UniProt P01111); assay: Binding to NRAS by surface plasmon resonance (SPR), Single Cycle Kinetics; conditions: KD ratio, GDP-bound NRAS wild-type vs GDP-bound KRAS wild-type, SPR
Sequence of GDP-bound NRAS wild-type protein (P01111 whole entry): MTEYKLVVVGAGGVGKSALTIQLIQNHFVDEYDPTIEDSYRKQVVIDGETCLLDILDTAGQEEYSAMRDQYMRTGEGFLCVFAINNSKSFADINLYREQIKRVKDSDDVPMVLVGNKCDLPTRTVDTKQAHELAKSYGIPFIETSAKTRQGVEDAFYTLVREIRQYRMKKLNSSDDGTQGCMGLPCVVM

Sequence of GDP-bound HRAS wild-type protein (P01112 whole entry): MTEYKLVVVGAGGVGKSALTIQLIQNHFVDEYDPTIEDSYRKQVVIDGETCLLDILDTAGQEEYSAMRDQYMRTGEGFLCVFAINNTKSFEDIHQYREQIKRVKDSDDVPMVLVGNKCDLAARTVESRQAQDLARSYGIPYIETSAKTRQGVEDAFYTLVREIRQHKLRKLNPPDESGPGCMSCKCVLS

| Structure (SMILES) | HRAS/KRAS (ratio of KD value for HRAS to KD value for KRAS) [1] | NRAS/KRAS (ratio of KD value for NRAS to KD value for KRAS) [2] |
| --- | --- | --- |
| CCCN(C)C(=O)[C@@H]1CC(=O)N(C)[C@@H](CC2CCC2)C(=O)N[C@@H]([C@@H](C)CC)C(=O)N(C)CC(=O)N(C)[C@H]2C/C=C\CCN(C2=O)[C@@H](Cc2ccc(C(F)(F)F)cc2)C(=O)N(C)CC(=O)N[C@@H](CCc2cc(F)c(C(F)(F)F)c(F)c2)C(=O)N2C[C@H](OCC)C[C@H]2C(=O)NC2(CCC2)C(=O)N(C)[C@@H](C2CCCC2)C(=O)N1C [PP1705] | A (a compound having 10 or more and less than 20 is denoted as A) | AA (a compound having 20 or more is denoted as AA) |
| CC[C@H](C)[C@@H]1NC(=O)[C@H](C)N(C)C(=O)C[C@@H](C(=O)N(C)C)N(C)C(=O)[C@H](C2CCCC2)N(C)C(=O)C2(CC(C)(C)C2)NC(=O)[C@@H]2CC(F)(F)CN2C(=O)[C@H](CCc2cc(F)c(C(F)(F)F)c(F)c2)NC(=O)CN(C)C(=O)[C@H](Cc2ccc(C(F)(F)F)cc2)N2CC/C=C\C[C@@H](C2=O)N(C)C(=O)CN(C)C1=O [PP1707] | A (a compound having 10 or more and less than 20 is denoted as A) | AA (a compound having 20 or more is denoted as AA) |
| CC[C@H](C)[C@@H]1NC(=O)[C@H](CC(F)F)N(C)C(=O)C[C@@H](C(=O)N(C)C)N(C)C(=O)[C@H](C2CCCC2)N(C)C(=O)C2(CC(C)(C)C2)NC(=O)[C@@H]2CC(F)(F)CN2C(=O)[C@H](CCc2cc(F)c(C(F)(F)F)c(F)c2)NC(=O)CN(C)C(=O)[C@H](Cc2ccc(C(F)(F)F)cc2)N2CC/C=C\C[C@@H](C2=O)N(C)C(=O)CN(C)C1=O [PP1709] | A (a compound having 10 or more and less than 20 is denoted as A) | A (a compound having 10 or more and less than 20 is denoted as A) |
| CC[C@H](C)[C@@H]1NC(=O)[C@H](CC(F)(F)F)N(C)C(=O)C[C@@H](C(=O)N(C)C)N(C)C(=O)[C@H](C2CCCC2)N(C)C(=O)C2(CC(C)(C)C2)NC(=O)[C@@H]2CC(F)(F)CN2C(=O)[C@H](CCc2cc(F)c(C(F)(F)F)c(F)c2)NC(=O)CN(C)C(=O)[C@H](Cc2ccc(C(F)(F)F)cc2)N2CC/C=C\C[C@@H](C2=O)N(C)C(=O)CN(C)C1=O [PP1710] | B (a compound having 3 or more and less than 10 is denoted as B) | A (a compound having 10 or more and less than 20 is denoted as A) |
| CCC[C@H]1C(=O)N[C@@H]([C@@H](C)CC)C(=O)N(C)CC(=O)N(C)[C@H]2C/C=C\CCN(C2=O)[C@@H](Cc2ccc(C(F)(F)F)cc2)C(=O)N(C)CC(=O)N[C@@H](CCc2cc(F)c(C(F)(F)F)c(F)c2)C(=O)N2CC(F)(F)C[C@H]2C(=O)NC2(CC(C)(C)C2)C(=O)N(C)[C@@H](C2CCCC2)C(=O)N(C)[C@H](C(=O)N(C)C)CC(=O)N1C [PP1711] | B (a compound having 3 or more and less than 10 is denoted as B) | A (a compound having 10 or more and less than 20 is denoted as A) |
| CC[C@H](C)[C@@H]1NC(=O)[C@H](CC2CC2)N(C)C(=O)C[C@@H](C(=O)N(C)C)N(C)C(=O)[C@H](C2CCCC2)N(C)C(=O)C2(CC(C)(C)C2)NC(=O)[C@@H]2CC(F)(F)CN2C(=O)[C@H](CCc2cc(F)c(C(F)(F)F)c(F)c2)NC(=O)CN(C)C(=O)[C@H](Cc2ccc(C(F)(F)F)cc2)N2CC/C=C\C[C@@H](C2=O)N(C)C(=O)CN(C)C1=O [PP1713] | A (a compound having 10 or more and less than 20 is denoted as A) | A (a compound having 10 or more and less than 20 is denoted as A) |
| CCCC[C@H]1C(=O)N[C@@H]([C@@H](C)CC)C(=O)N(C)CC(=O)N(C)[C@H]2C/C=C\CCN(C2=O)[C@@H](Cc2ccc(C(F)(F)F)cc2)C(=O)N(C)CC(=O)N[C@@H](CCc2cc(F)c(C(F)(F)F)c(F)c2)C(=O)N2CC(F)(F)C[C@H]2C(=O)NC2(CC(C)(C)C2)C(=O)N(C)[C@@H](C2CCCC2)C(=O)N(C)[C@H](C(=O)N(C)C)CC(=O)N1C [PP1714] | A (a compound having 10 or more and less than 20 is denoted as A) | A (a compound having 10 or more and less than 20 is denoted as A) |
| CC[C@H](C)[C@@H]1NC(=O)[C@H](CC(C)C)N(C)C(=O)C[C@@H](C(=O)N(C)C)N(C)C(=O)[C@H](C2CCCC2)N(C)C(=O)C2(CC(C)(C)C2)NC(=O)[C@@H]2CC(F)(F)CN2C(=O)[C@H](CCc2cc(F)c(C(F)(F)F)c(F)c2)NC(=O)CN(C)C(=O)[C@H](Cc2ccc(C(F)(F)F)cc2)N2CC/C=C\C[C@@H](C2=O)N(C)C(=O)CN(C)C1=O [PP1715] | A (a compound having 10 or more and less than 20 is denoted as A) | AA (a compound having 20 or more is denoted as AA) |
| CC[C@H](C)[C@@H]1NC(=O)[C@H](CC2CCC2)N(C)C(=O)C[C@@H](C(=O)N(C)C)N(C)C(=O)[C@H](C2CCCC2)N(C)C(=O)C2(CC(C)(C)C2)NC(=O)[C@@H]2CC(F)(F)CN2C(=O)[C@H](CCc2cc(F)c(C(F)(F)F)c(F)c2)NC(=O)CN(C)C(=O)[C@H](Cc2ccc(C(F)(F)F)cc2)N2CC/C=C\C[C@@H](C2=O)N(C)C(=O)CN(C)C1=O [PP1716] | A (a compound having 10 or more and less than 20 is denoted as A) | AA (a compound having 20 or more is denoted as AA) |
| CC[C@H](C)[C@@H]1NC(=O)[C@H](COC)N(C)C(=O)C[C@@H](C(=O)N(C)C)N(C)C(=O)[C@H](C2CCCC2)N(C)C(=O)C2(CC(C)(C)C2)NC(=O)[C@@H]2CC(F)(F)CN2C(=O)[C@H](CCc2cc(F)c(C(F)(F)F)c(F)c2)NC(=O)CN(C)C(=O)[C@H](Cc2ccc(C(F)(F)F)cc2)N2CC/C=C\C[C@@H](C2=O)N(C)C(=O)CN(C)C1=O [PP1717] | A (a compound having 10 or more and less than 20 is denoted as A) | A (a compound having 10 or more and less than 20 is denoted as A) |
| CCCOC[C@H]1C(=O)N[C@@H]([C@@H](C)CC)C(=O)N(C)CC(=O)N(C)[C@H]2C/C=C\CCN(C2=O)[C@@H](Cc2ccc(C(F)(F)F)cc2)C(=O)N(C)CC(=O)N[C@@H](CCc2cc(F)c(C(F)(F)F)c(F)c2)C(=O)N2CC(F)(F)C[C@H]2C(=O)NC2(CC(C)(C)C2)C(=O)N(C)[C@@H](C2CCCC2)C(=O)N(C)[C@H](C(=O)N(C)C)CC(=O)N1C [PP1718] | A (a compound having 10 or more and less than 20 is denoted as A) | AA (a compound having 20 or more is denoted as AA) |
| CCCN(C)C(=O)[C@@H]1CC(=O)N(C)[C@@H](CC(F)F)C(=O)N[C@@H]([C@@H](C)CC)C(=O)N(C)CC(=O)N(C)[C@H]2C/C=C\CCN(C2=O)[C@@H](Cc2ccc(C(F)(F)F)cc2)C(=O)N(C)CC(=O)N[C@@H](CCc2cc(F)c(C(F)(F)F)c(F)c2)C(=O)N2CCC[C@H]2C(=O)NC2(CC(C)(C)C2)C(=O)N(C)[C@@H](C2CCCC2)C(=O)N1C [PP1721] | A (a compound having 10 or more and less than 20 is denoted as A) | A (a compound having 10 or more and less than 20 is denoted as A) |
| CC[C@H](C)[C@@H]1NC(=O)[C@H](CC(F)(F)F)N(C)C(=O)C[C@@H](C(=O)N(C)C)N(C)C(=O)[C@H](C2CCCC2)N(C)C(=O)C2(CC(C)(C)C2)NC(=O)[C@@H]2CCCN2C(=O)[C@H](CCc2cc(F)c(C(F)(F)F)c(F)c2)NC(=O)CN(C)C(=O)[C@H](Cc2ccc(C(F)(F)F)cc2)N2CC/C=C\C[C@@H](C2=O)N(C)C(=O)CN(C)C1=O [PP1722] | A (a compound having 10 or more and less than 20 is denoted as A) | AA (a compound having 20 or more is denoted as AA) |
| CC[C@H](C)[C@@H]1NC(=O)[C@H](CC(C)C)N(C)C(=O)C[C@@H](C(=O)N(C)C)N(C)C(=O)[C@H](C2CCCC2)N(C)C(=O)C2(CC(C)(C)C2)NC(=O)[C@@H]2CCCN2C(=O)[C@H](CCc2cc(F)c(C(F)(F)F)c(F)c2)NC(=O)CN(C)C(=O)[C@H](Cc2ccc(C(F)(F)F)cc2)N2CC/C=C\C[C@@H](C2=O)N(C)C(=O)CN(C)C1=O [PP1727] | A (a compound having 10 or more and less than 20 is denoted as A) | A (a compound having 10 or more and less than 20 is denoted as A) |
| CC[C@H](C)[C@@H]1NC(=O)[C@H](CC2CCC2)N(C)C(=O)C[C@@H](C(=O)N(C)C)N(C)C(=O)[C@H](C2CCCC2)N(C)C(=O)C2(CC(C)(C)C2)NC(=O)[C@@H]2CCCN2C(=O)[C@H](CCc2cc(F)c(C(F)(F)F)c(F)c2)NC(=O)CN(C)C(=O)[C@H](Cc2ccc(C(F)(F)F)cc2)N2CC/C=C\C[C@@H](C2=O)N(C)C(=O)CN(C)C1=O [PP1728] | A (a compound having 10 or more and less than 20 is denoted as A) | A (a compound having 10 or more and less than 20 is denoted as A) |
| CCCN(C)C(=O)[C@@H]1CC(=O)N(C)[C@@H](COC)C(=O)N[C@@H]([C@@H](C)CC)C(=O)N(C)CC(=O)N(C)[C@H]2C/C=C\CCN(C2=O)[C@@H](Cc2ccc(C(F)(F)F)cc2)C(=O)N(C)CC(=O)N[C@@H](CCc2cc(F)c(C(F)(F)F)c(F)c2)C(=O)N2CCC[C@H]2C(=O)NC2(CC(C)(C)C2)C(=O)N(C)[C@@H](C2CCCC2)C(=O)N1C [PP1729] | A (a compound having 10 or more and less than 20 is denoted as A) | AA (a compound having 20 or more is denoted as AA) |
